{"source": "patent US11083718B2", "about": "“Betahistine, or a pharmaceutically acceptable salt thereof, and a monoamine oxidase inhibitor, for use in the treatment or prevention of one or more symptoms of vertigo in a subject” (INTRABIO LTD, priority 2017, dated 2021)", "key": {"[1]": {"conditions": "cited from earlier work"}, "[2]": {"tested_on": "acute attacks of vertigo in patients with Menière's disease", "assay": "Observational study: high-dosage betahistine monotherapy versus lower-dosage betahistine plus selegiline", "assay_type": "in vivo, human", "procedure": "Betahistine dihydrochloride tablets were obtained from Abbott (Vasomotol 24 mg tablets). Selegiline hydrochloride tablets were obtained from Hexal.\nStudies by the Applicant investigated the benefits of a high-dosage betahistine monotherapy compared with those of a lower dosage of betahistine in combination with the MAO B inhibitor (MAO-B) selegiline on the frequency of acute attacks of vertigo in patients with Menière's disease (MD).\nMore specifically, studies investigated the effect of combination therapy in 13 subjects receiving 5 mg per day selegiline hydrochloride (either as one tablet at night, or half a tablet in the morning and half a tablet at night), in conjunction with varying amounts of betahistine dihydrochloride per day (amounts ranging from n=3 to 36, where n is the number of 24 mg tablets per day). All subjects had previously received treatment with betahistine dihydrochloride monotherapy (in amounts ranging from n=9 to 80, where n is the number of 24 mg tablets per day), and the number of vertigo attacks per month were recorded during a three month period of monotherapy prior to commencement of combination treatment. Following combination treatment, the subjects then recorded the number of vertigo attacks per month during the last two months of combination treatment.\nThe 13 patients in this observational study fulfilled the current diagnostic criteria of MD [48]. Patients with the diagnosis of other peripheral or central vestibular disorders, such as vestibular migraine, benign paroxysmal positional vertigo, paroxysmal brainstem attacks, or functional dizziness, were not included. Patients suffering from known contraindications or hypersensitivity to betahistine, such as bronchial asthma, pheochromocytoma, or treatment with other antihistaminic drugs, ulcer of the stomach or duodendum, or severe dysfunction of liver or kidney were also not treated with betahistine. Patients with known contraindications (e.g., use of meperidine or other opioids, tricyclic antidepressants or non-selective MAOls, selective serotonin re-uptake inhibitors) or hypersensitivity to selegiline were not treated with this agent.\nBased on the results of the BEMED trial (showing that betahistine 48 mg tid is evidently not effective) the study initially started with a dosage of 96 mg tid in all patients. During the three- to six-monthly follow-up examinations the daily dosages were adjusted according to the patient's response (approach: “titration” of attacks of vertigo). Patients had been treated for at least 18 months with high dosages of betahistine-dihydrochloride and had ≤1 attacks for at least three months. An initial dosage of 5 mg/day selegiline hydrochloride was chosen (approved dosage for Parkinson's disease is 5 to 10 mg/d). In parallel the dosage of betahistine was reduced to about a tenth of the initial dosage. The design of the observational study was approved by the local ethics committee. Follow-up examinations were after 1 month and then every 3 months to check the efficacy of the treatment and the side-effects and to adjust the betahistine dosage if necessary. Ideally, the objective was to achieve ≤1 attack per three months."}, "[3]": {"tested_on": "vertigo episodes related to Menière's disease", "conditions": "daily doses 2×24 mg or 3×48 mg; nine months; cited from earlier work"}}, "note": "Values joined by “and” are separate entries in the source; they are usually repeats but may differ in a detail not shown here. Equal values may be shown once.", "data": [{"smiles": "CNCCc1ccccn1", "note": "[betahistine, 2-[2-(methylamino)ethyl]pyridine]", "values": [{"measurement": "plasma concentrations", "setting": "[1]; betahistine without MAO inhibitor", "value": "less than 0.5 ng/ml"}, {"measurement": "first-pass effect", "setting": "[1]; normally almost complete", "value": 99, "unit": "%"}, {"measurement": "daily betahistine-dihydrochloride dosage required to achieve a treatment response, mean", "setting": "[2]; 13 patients", "value": 895.4, "unit": "mg/day"}, {"measurement": "daily betahistine-dihydrochloride dosage required to achieve a treatment response, mean in tablets", "setting": "[2]; 13 patients", "value": "37.3 24-mg tablets per day"}, {"measurement": "mean daily dosage of betahistine-dihydrochloride to respond to treatment (≤1 attack per three months), FIG. 1", "setting": "[2]; 13 patients, per day", "value": 895.4, "unit": "mg"}, {"measurement": "tolerability", "setting": "[2]; 216 to 1920 mg per day", "value": "well tolerated"}, {"measurement": "patients with fullness of the stomach", "setting": "[2]; 216 to 1920 mg per day, 13 patients", "value": 4, "unit": "patients"}, {"measurement": "Dosage of betahistine (monotherapy) required that the patient had a significant effect before the combined treatment", "setting": "[2]; individual patients 1-13 with Menière's disease, tablets per day", "value": "80 n of 24-mg tablets and 30 n of 24-mg tablets (3×) and 9 n of 24-mg tablets and 36 n of 24-mg tablets and 60 n of 24-mg tablets (2×) and 24 n of 24-mg tablets and 18 n of 24-mg tablets (2×) and 50 n of 24-mg tablets and 40 n of 24-mg tablets"}, {"measurement": "effect on time course of vertigo episodes compared with placebo", "setting": "[3]", "value": "does not change the time course of vertigo episodes"}]}]}
